# Experimental data as given in ChEMBL document CHEMBL4627384, “l-Thyroxin and the Nonclassical Thyroid Hormone TETRAC Are Potent Activators of PPARγ” (J Med Chem, 2020).
# The source made the active and inactive calls. The calls are words filed in the database; no cut-off is given here.
# Assays:
# [1] = Drug metabolism in human HepG2 cells assessed as 2-(4-(4-hydroxy-3,5-diiodophenoxy)-3,5-diiodophenyl)acetic acid formation at 10 uM incubated for 24 hrs by LC-MS analysis; format: ADME, cell-based; conditions: hepg2, 24 h
# [2] = target: T1, Peroxisome proliferator-activated receptor gamma (Homo sapiens) (UniProt P37231); assay: Agonist activity at PPARgamma in human HepG2 cells assessed as induction of CD36 mRNA expression at 30 uM incubated for 8 hrs in presence of PPARgamma antagonist GW9662 by qPCR analysis; format: cell-based
# T1 sequence (whole entry): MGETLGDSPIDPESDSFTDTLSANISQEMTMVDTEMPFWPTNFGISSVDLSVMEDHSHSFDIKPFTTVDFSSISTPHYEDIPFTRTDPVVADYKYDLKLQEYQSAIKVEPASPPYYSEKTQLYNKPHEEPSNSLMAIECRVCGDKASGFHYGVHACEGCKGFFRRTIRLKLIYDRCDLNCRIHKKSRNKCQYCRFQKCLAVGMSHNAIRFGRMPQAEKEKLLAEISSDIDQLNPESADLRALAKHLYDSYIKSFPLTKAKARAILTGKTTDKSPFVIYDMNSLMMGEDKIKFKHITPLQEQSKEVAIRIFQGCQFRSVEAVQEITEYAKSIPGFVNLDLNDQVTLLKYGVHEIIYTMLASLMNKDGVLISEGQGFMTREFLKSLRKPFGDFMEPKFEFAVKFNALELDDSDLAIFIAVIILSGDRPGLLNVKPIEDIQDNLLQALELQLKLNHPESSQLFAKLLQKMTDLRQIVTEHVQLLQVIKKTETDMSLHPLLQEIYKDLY
# [3] = target: T1, Peroxisome proliferator-activated receptor gamma (Homo sapiens); assay: Agonist activity at PPARgamma in human HepG2 cells without THRB knockdown assessed as induction of CD36 expression at 30 uM incubated for 8 hrs in by Western blot analysis; format: cell-based
# [4] = target: T1, Peroxisome proliferator-activated receptor gamma (Homo sapiens); assay: Agonist activity at recombinant human pFA-CMV fused PPARgamma LBD expressed in HEK293T cells transfected with pFR-luciferase plasmid and pRL-SV40 plasmid at 15 uM incubated for 14 to 16 hrs in presence of PPARgamma antagonist GW9662 by dual glo luciferase reporter gene assay; format: cell-based; conditions: HEK-293T
# [5] = target: T2, Hepatocyte nuclear factor 4-alpha (Homo sapiens) (UniProt P41235); assay: Agonist activity at recombinant human pFA-CMV-fused HNF4alpha LBD expressed in HEK293T cells transfected with pFR-luciferase plasmid and pRL-SV40 plasmid at 0.001 to 0.3 uM incubated for 14 to 16 hrs by dual glo luciferase reporter gene assay; format: cell-based; conditions: HEK-293T
# T2 sequence (whole entry): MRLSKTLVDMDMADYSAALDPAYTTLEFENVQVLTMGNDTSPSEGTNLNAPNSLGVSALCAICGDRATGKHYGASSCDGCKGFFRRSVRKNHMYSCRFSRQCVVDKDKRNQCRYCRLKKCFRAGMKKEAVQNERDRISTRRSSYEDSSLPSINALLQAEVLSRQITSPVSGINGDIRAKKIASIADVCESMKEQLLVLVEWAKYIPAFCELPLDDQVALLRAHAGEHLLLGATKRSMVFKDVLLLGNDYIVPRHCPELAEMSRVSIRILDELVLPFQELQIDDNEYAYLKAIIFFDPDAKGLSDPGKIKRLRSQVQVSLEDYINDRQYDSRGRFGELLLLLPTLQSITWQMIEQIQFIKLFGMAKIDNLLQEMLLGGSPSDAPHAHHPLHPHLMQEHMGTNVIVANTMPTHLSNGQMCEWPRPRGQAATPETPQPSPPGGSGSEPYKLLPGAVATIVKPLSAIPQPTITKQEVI
# [6] = target: T3, Peroxisome proliferator-activated receptor gamma (Mus musculus) (UniProt P37238); assay: Agonist activity at PPARgamma in mouse 3T3L1 adipocytes assessed as induction of GLUT4 mRNA expression at 1 uM by qRT-PCR analysis; format: cell-based; conditions: 3T3-L1
# T3 sequence (whole entry): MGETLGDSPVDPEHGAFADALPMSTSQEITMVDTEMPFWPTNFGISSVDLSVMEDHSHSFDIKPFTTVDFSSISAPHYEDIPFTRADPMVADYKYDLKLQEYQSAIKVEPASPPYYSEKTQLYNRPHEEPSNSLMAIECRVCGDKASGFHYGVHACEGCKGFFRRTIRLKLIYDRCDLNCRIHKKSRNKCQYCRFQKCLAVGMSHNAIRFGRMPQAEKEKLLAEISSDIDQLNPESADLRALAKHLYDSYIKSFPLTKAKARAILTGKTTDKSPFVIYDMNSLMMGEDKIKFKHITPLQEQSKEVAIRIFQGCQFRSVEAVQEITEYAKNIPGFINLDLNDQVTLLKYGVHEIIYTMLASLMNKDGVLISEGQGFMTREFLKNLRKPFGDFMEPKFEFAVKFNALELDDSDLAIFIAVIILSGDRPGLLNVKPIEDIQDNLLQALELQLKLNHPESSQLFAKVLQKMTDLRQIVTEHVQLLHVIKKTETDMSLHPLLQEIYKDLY
# [7] = Drug level in human serum by RIA; format: ADME, cell-free; conditions: read-out: Drug uptake
# [8] = target: T1, Peroxisome proliferator-activated receptor gamma (Homo sapiens); assay: Agonist activity at PPARgamma in human HepG2 cells with THRB knockdown assessed as induction of CD36 expression at 1 uM incubated for 8 hrs in by Western blot analysis; format: cell-based
# [9] = target: T1, Peroxisome proliferator-activated receptor gamma (Homo sapiens); assay: Agonist activity at recombinant human pFA-CMV fused PPARgamma LBD expressed in HEK293T cells transfected with pFR-luciferase plasmid and pRL-SV40 plasmid at 0.1 uM incubated for 14 to 16 hrs in presence of PPARgamma antagonist GW9662 by dual glo luciferase reporter gene assay; format: cell-based; conditions: HEK-293T
# [10] = target: T1, Peroxisome proliferator-activated receptor gamma (Homo sapiens); assay: Agonist activity at N-terminal GFP-fused PPARgamma LBD (unknown origin) assessed as biotin-labeled CBP recruitment incubated for 2 hrs by HT-FRET assay relative to rosiglitazone
# [11] = target: T1, Peroxisome proliferator-activated receptor gamma (Homo sapiens); assay: Agonist activity at N-terminal GFP-fused PPARgamma LBD (unknown origin) assessed as biotin-labeled SRC-1 recruitment incubated for 2 hrs by HT-FRET assay
# HEK-293T = assay: Activation of renilla luciferase expressed in HEK293T cells at 0.1 uM incubated for 14 to 16 hrs by reporter gene assay; format: cell-based; conditions: Renilla reniformis
# Homo sapiens = species on record: Homo sapiens; assay: Agonist activity at PPARgamma LBD (unknown origin)/GFP-tagged RXRalpha mutant (unknown origin) assessed as biotin-labeled CBP recruitment to […]:RXRalpha mutant fusion protein heterodimer incubated for 2 hrs by HT-FRET assay
# [12] = target: T2, Hepatocyte nuclear factor 4-alpha (Homo sapiens); assay: Agonist activity at recombinant human pFA-CMV-fused HNF4alpha LBD expressed in HEK293T cells transfected with pFR-luciferase plasmid and pRL-SV40 plasmid at 1 uM incubated for 14 to 16 hrs by dual glo luciferase reporter gene assay; format: cell-based; conditions: HEK-293T
Drug metabolism [1] [ng],Activity [2],Activity [3],Activity [4],Activity [5],Activity [6],concentration [7] [nM],Activity [8],Activity [9],Activity [10],Activity [11],Activity (Homo sapiens),Activity [12],Structure (SMILES),Activity (HEK-293T)
44,inactive,Active,inactive,,,,,,,,,,N[C@@H](Cc1cc(I)c(Oc2cc(I)c(O)c(I)c2)c(I)c1)C(=O)O [LEVOTHYROXINE],
,,,,inactive,Active,1.6,Active,inactive,Active,Active,Active,Active,O=C(O)Cc1cc(I)c(Oc2cc(I)c(O)c(I)c2)c(I)c1 [TETRAC],inactive
